Results published in US9216971B2 (priority 2007, dated 2015).
Where two headings read alike, the source gives them in different places.

Legend:
[1] = target: T1, hM3 muscarinic receptor subtype (Homo sapiens, UniProt P20309); test: biochemical; format: binding
T1 construct: expressed in transfected cells; membranes prepared

hM2 receptor = target: T2, hM2 receptor (Homo sapiens, UniProt P08172); test: Blockade of agonist-mediated inhibition of cAMP accumulation; format: cell-based; details: CHO-K1 cells expressing the hM2 receptor; read-out: Ki for blockade of oxotremorine-inhibition of forskolin-mediated cAMP accumulation
T2 construct: expressed in transfected cells; host or cells: CHO-K1 cells
T2 sequence (P08172 1-466): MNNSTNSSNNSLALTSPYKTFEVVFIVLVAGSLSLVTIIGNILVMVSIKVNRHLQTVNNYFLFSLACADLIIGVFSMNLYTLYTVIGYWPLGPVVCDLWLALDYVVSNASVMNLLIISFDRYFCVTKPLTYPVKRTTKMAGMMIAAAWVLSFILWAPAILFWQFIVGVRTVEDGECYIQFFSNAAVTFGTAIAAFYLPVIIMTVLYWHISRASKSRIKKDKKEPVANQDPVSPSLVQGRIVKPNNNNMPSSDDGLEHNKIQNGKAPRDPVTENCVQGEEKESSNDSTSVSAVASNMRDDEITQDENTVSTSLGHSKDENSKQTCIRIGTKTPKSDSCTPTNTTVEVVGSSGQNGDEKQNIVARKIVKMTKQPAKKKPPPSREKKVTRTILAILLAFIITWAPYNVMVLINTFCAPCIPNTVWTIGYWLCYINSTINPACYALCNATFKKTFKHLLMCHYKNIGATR

MCh response = details: rat
[2] = tested on: pilocarpine-induced salivation; test: Rat antisialagogue assay; format: in vivo; details: evaluated at 1, 6, and 24 hours post-dose
Description: Rats (Sprague-Dawley, male, 250-350 g) are dosed, anesthetized and cannulated as described for Assay 3. At predetermined time points and after surgery, animals are placed on their dorsal side at a 20° incline with their head in a downward slope. A pre-weighed gauze pad is inserted in the animal's mouth and the muscarinic agonist pilocarpine (PILO) (3 mg/kg, IV) is administered. Saliva produced during 10 minutes post-PILO is measured gravimetrically by determining the weight of the gauze pad before and after PILO. Antisialagogue effects are expressed as % inhibition of salivation relative to control animals.
The rat antisialagogue assay was developed to assess systemic exposure and calculate the lung selectivity index (LSI) of test compounds. The standard, tiotropium, was evaluated in this model at 1, 6, and 24 hours post-dose. […] This finding is consistent with the peak effects observed in the Einthoven assay.
This model is a modified version of the procedure described in Rechter, “Estimation of anticholinergic drug effects in mice by antagonism against pilocarpine-induced salivation” Ata Pharmacol Toxicol 24:243-254 (1996). The mean weight of saliva in vehicle-treated animals, at each pre-treatment time, is calculated and used to compute % inhibition of salivation, at the corresponding pre-treatment time, at each dose.

T1 sequence (P20309 whole entry): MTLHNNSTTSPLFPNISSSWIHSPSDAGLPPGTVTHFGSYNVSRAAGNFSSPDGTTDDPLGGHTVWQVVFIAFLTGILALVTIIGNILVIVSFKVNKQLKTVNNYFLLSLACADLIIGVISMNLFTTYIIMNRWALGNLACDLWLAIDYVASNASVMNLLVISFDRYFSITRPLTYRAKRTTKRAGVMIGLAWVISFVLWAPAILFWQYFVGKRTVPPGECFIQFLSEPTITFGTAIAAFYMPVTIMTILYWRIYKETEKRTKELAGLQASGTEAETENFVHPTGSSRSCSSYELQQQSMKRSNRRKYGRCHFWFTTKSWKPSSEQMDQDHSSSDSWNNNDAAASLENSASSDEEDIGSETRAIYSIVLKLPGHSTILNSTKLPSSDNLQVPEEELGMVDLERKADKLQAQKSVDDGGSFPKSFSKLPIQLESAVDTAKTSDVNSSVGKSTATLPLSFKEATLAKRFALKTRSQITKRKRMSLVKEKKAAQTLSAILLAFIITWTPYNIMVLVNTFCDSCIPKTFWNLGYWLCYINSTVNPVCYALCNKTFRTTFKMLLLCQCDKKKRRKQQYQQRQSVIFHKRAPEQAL

C[N+](C)(CCc1ccccc1)C1CCN(C(=O)[C@](O)(c2ccccc2)C2CCCC2)CC1 [Example 1, [1-((R)-2-cyclopentyl-2-hydroxy-2-phenylacetyl)piperidin-4-yl]dimethylphenethylammonium]
Ki [1]: < 1 nM

C[N+](C)(CCc1cccc(O)c1)C1CCN(C(=O)[C@](O)(c2ccccc2)C2CCCC2)CC1 [Example 2, [1-((R)-2-cyclopentyl-2-hydroxy-2-phenylacetyl)piperidin-4-yl][2-(3-hydroxyphenyl)ethyl]dimethylammonium]
Ki [1]: < 1 nM
Ki (hM2 receptor): < 1 nM

C[N+]1(C)CCC(OC(=O)C(O)(c2ccccc2)C2CCCC2)C1 (stereo not shown) [glycopyrrolate]
ID50 (bronchoprotective potency) (MCh response; inhalation, 1.5 hours post-dose): 15 µg/mL

CC(C)[N+]1(C)[C@@H]2CC[C@H]1C[C@@H](OC(=O)C(CO)c1ccccc1)C2 (stereo partly shown) [ipratropium]
ID50 (bronchoprotective potency) (MCh response; in vivo): 4.4 µg/mL
fold less potent 6-hours post-dose compared to 1.5 hour potency (MCh response; in vivo): about 3 fold

C[N+]1(C)[C@@H]2C[C@@H](OC(=O)C(O)(c3cccs3)c3cccs3)C[C@H]1[C@@H]1O[C@@H]12 [tiotropium]
ID50 (bronchoprotective potency) (MCh response; in vivo): 6 µg/mL
fold more potent at 6 hour and 24 hour compared to 1.5 hour potency (MCh response; in vivo): about 2 fold
time of peak bronchoprotection post-dose (MCh response; in vivo): 6 h
time post dose at which most potent at inhibiting pilocarpine-induced salivation [2]: 6 h
